Experimental data published in ChEMBL document CHEMBL4152187, “Plant-derived mPGES-1 inhibitors or suppressors: A new emerging trend in the search for small molecules to combat inflammation” (Eur J Med Chem, 2018).
One block for each compound: values may come before it.

Assays:
[1] = biological target: Prostaglandin G/H synthase 2 (Homo sapiens) (UniProt P35354); assay: Inhibition of COX2 in human A375 cells assessed as reduction in PGE2 production up to 20 uM by immunoblot analysis relative to control
Chain of Prostaglandin G/H synthase 2 (Homo sapiens) (P35354 whole entry, looked up): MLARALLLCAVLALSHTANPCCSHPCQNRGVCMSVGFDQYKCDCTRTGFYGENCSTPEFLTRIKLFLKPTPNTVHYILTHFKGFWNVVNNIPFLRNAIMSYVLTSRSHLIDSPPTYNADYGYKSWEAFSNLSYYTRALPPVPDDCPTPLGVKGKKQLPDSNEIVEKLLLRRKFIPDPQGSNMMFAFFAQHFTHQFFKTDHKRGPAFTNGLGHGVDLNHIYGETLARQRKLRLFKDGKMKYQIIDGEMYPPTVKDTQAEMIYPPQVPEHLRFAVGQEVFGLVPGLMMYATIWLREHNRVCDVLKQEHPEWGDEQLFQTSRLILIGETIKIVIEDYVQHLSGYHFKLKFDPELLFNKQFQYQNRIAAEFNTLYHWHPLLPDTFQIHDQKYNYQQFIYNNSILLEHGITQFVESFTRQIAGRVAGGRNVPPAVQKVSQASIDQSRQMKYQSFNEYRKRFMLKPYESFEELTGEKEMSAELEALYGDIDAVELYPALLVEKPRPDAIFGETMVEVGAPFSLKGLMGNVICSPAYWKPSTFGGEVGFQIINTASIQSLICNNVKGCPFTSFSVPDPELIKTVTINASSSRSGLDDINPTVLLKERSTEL

[2] = biological target: T1, Prostaglandin E synthase (Homo sapiens) (UniProt O14684); assay: Inhibition of mPGES1 in human HeLa cells assessed as reduction in PGE2 production at 50 uM by enzyme immunoassay relative to control; assay type: cell-based
T1 sequence (whole entry): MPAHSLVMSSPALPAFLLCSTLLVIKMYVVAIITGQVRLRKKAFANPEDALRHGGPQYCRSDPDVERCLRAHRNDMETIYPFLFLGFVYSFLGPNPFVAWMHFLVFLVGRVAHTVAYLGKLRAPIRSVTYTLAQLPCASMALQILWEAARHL

[3] = biological target: Prostaglandin G/H synthase 2 (Homo sapiens) (UniProt P35354); assay: Inhibition of COX2 in human Hs294 cells assessed as reduction in PGE2 production up to 20 uM by immunoblot analysis relative to control
[4] = biological target: T2, Prostaglandin E synthase (Homo sapiens, UniProt O14684); assay: Inhibition of mPGES1 in human A549 cell microsomal membrane using pGH2 as substrate pretreated for 15 mins followed by substrate addition and measured after 1 min by RP-HPLC method
T2 sequence (O14684 whole entry): T1 sequence (whole entry)

[5] = test system: Rattus norvegicus; assay: Antiinflammatory activity against carrageenan-induced pleurisy in rat assessed as reduction in PGE2 level at 3.6 mg/kg, ip relative to control; assay type: functional; set-up: scale not given: the % may be the effect or the level left
[6] = test system: Rattus norvegicus; assay: Antiinflammatory activity against carrageenan-induced pleurisy in rat assessed as reduction in cell infiltration at 3.6 mg/kg, ip relative to control; assay type: functional; set-up: scale not given: the % may be the effect or the level left
[7] = test system: Rattus norvegicus; assay: Antiinflammatory activity against carrageenan-induced pleurisy in rat assessed as reduction in exudate formation at 3.6 mg/kg, ip relative to control; assay type: functional; set-up: scale not given: the % may be the effect or the level left
[8] = test system: J774; assay: Inhibition of LPS-induced mPGES1 mRNA expression in mouse J774 cells at 100 uM measured after 6 to 24 hrs by qRT-PCR analysis; assay type: functional
[9] = biological target: T2, Prostaglandin E synthase; assay: Inhibition of mPGES1 in human A549 cell microsomes
[10] = test system: J774; assay: Inhibition of LPS-stimulated mPGES1 expression in mouse J774 cells; assay type: functional, cell-based

Compound: COc1ccc2cc3[n+](cc2c1OC)CCc1cc2c(cc1-3)OCO2
inhibition [1]: 15 to 75% | inhibition [2]: 71.9% | inhibition [3]: 16 to 63%

Compound: CCCCCc1cc(OC(=O)c2c(O)cc(OC)cc2CCCCC)cc(O)c1C(=O)O
IC50 [4]: 0.43 µM

Compound: CCc1oc(=O)c(Cc2c(O)c(CC=C(C)C)c(O)c(C(C)=O)c2O)c(O)c1C [ARZANOL]
Activity [5]: 47% | Activity [6]: 48% | Activity [7]: 59%

Compound: CC(=O)O[C@@H]1CC[C@@]2(C)[C@@H](CC[C@]3(C)[C@@H]2CC=C2[C@@H]4[C@@H](C)[C@H](C)CC[C@]4(C)CC[C@]23C)[C@@]1(C)C(=O)O
IC50 [4]: ≥ 30 µM

Compound: CCCCCC(=O)Cc1cc(O)cc(O)c1C(=O)Oc1cc(O)c(C(=O)O)c(CCCCC)c1
IC50 [4]: 0.4 µM

Compound: COc1cc(-c2oc3cc(O)cc(O)c3c(=O)c2O)ccc1O [ISORHAMNETIN]
inhibition at 100 µM [8]: > 50%

Compound: O=C(O[C@@H]1Cc2c(O)cc(O)cc2O[C@@H]1c1cc(O)c(O)c(O)c1)c1cc(O)c(O)c(O)c1 [EPIGALOCATECHIN GALLATE]
IC50 [4]: 1.8 µM

Compound: COc1cc(C[C@@H]2COC(=O)[C@]2(O)Cc2ccc(O)c(OC)c2)ccc1O
IC50 [10]: 14 µM

Compound: O=c1c(O)c(-c2ccc(O)cc2)oc2cc(O)cc(O)c12 [KAEMPFEROL]
inhibition at 100 µM [8]: > 50%

More lines, now with the values ahead:

IC50 [4]: 0.3 µM
Compound: COc1cc(/C=C/C(=O)CC(=O)/C=C/c2ccc(O)c(OC)c2)ccc1O [CURCUMIN]

IC50 [4]: 10 µM
Compound: C[C@H]1[C@H](C)CC[C@]2(C)CC[C@]3(C)C(=CC(=O)[C@@H]4[C@@]5(C)CC[C@@H](O)[C@](C)(C(=O)O)[C@@H]5CC[C@]43C)[C@H]12 [11-KETO BOSWELLIC ACID]

IC50 [9]: 0.2 µM
Compound: CCCCCCCCCCCC1=C(O)C(=O)C=C(O)C1=O [EMBELIN]

IC50 [4]: 1.15 µM
Compound: COC(=O)c1c(C)cc(OC(=O)c2c(C)cc(O)c(C=O)c2O)c(C)c1O [ATRANORIN]

IC50 [4]: 0.3 µM
Compound: C=C(C)[C@H](CC=C(C)C)C[C@]12C[C@H](CC=C(C)C)C(C)(C)[C@](CC=C(C)C)(C(=O)C(C(=O)c3ccc(O)c(O)c3)=C1O)C2=O
